Species on record: Rattus norvegicus
Assay: DrugMatrix - Regimen: Daily Repeat
Format: toxicity, organism-based, Sprague-Dawley
Design: regimen Daily Repeat, gender Male, age 6-8 weeks
Settings: in vivo, po, route oral GAVAGE, vehicle .5 % CMC; for ABSOLUTE BASOPHIL / ABSOLUTE EOSINOPHIL / ABSOLUTE LYMPHOCYTE / ABSOLUTE MONOCYTE / ABSOLUTE SEGMENTED NEUTROPHIL / BASOPHIL / EOSINOPHIL / ERYTHROCYTE COUNT / HEMATOCRIT / HEMOGLOBIN / LEUKOCYTE COUNT / LYMPHOCYTE / MEAN CORPUSCULAR HEMOGLOBIN / MEAN CORPUSCULAR HEMOGLOBIN CONCENTRATION / MEAN CORPUSCULAR VOLUME / MONOCYTE / NEUTROPHIL / NUCLEATED RED BLOOD CELLS / PLATELET COUNT: tissue Blood; for ALANINE AMINOTRANSFERASE / ALBUMIN / ALKALINE PHOSPHATASE / ASPARTATE AMINOTRANSFERASE / BLOOD UREA NITROGEN / CARBON DIOXIDE / CHLORIDE / CHOLESTEROL / CREATINE PHOSPHOKINASE / CREATININE / GLUCOSE / LACTATE DEHYDROGENASE / LIPASE / PHOSPHORUS / POTASSIUM / SODIUM / TOTAL BILIRUBIN / TOTAL PROTEIN / URIC ACID: tissue Plasma
[1] = 0 mg/kg, 72 h, dose level Control, time 3 day
[2] = 0 mg/kg, 120 h, dose level Control, time 5 day
[3] = 15 mg/kg, 72 h, dose level Low, time 3 day

COC(=O)c1ccc(O)cc1 [METHYLPARABEN]
ABSOLUTE BASOPHIL [1]: 0 CELLS/uL | ABSOLUTE EOSINOPHIL [1]: 0 CELLS/uL | ABSOLUTE LYMPHOCYTE [1]: 10913.67 CELLS/uL | ABSOLUTE MONOCYTE [1]: 85.33 CELLS/uL | ABSOLUTE SEGMENTED NEUTROPHIL [1]: 1401 CELLS/uL | BASOPHIL [1]: 0% | EOSINOPHIL [1]: 0% | ERYTHROCYTE COUNT [1]: 5.57 x10E6/uL | HEMATOCRIT [1]: 35.58% | HEMOGLOBIN [1]: 13.8 G/DL | LEUKOCYTE COUNT [1]: 12.4 x10E3/uL | LYMPHOCYTE [1]: 88% | MEAN CORPUSCULAR HEMOGLOBIN [1]: 24.78 pg | MEAN CORPUSCULAR HEMOGLOBIN CONCENTRATION [1]: 38.82 G/DL | MEAN CORPUSCULAR VOLUME [1]: 63.88 fL | MONOCYTE [1]: 0.67% | NEUTROPHIL [1]: 11.33% | NUCLEATED RED BLOOD CELLS [1]: 0 /100WBC | PLATELET COUNT [1]: 1162.33 x10E3/uL | ALANINE AMINOTRANSFERASE [1]: 53 u/L | ALBUMIN [1]: 4.17 G/DL | ALKALINE PHOSPHATASE [1]: 374.5 u/L | ASPARTATE AMINOTRANSFERASE [1]: 89.5 u/L | BLOOD UREA NITROGEN [1]: 16.33 mg/dL | CARBON DIOXIDE [1]: 29.17 mmol/L | CHLORIDE [1]: 97.67 MEQ/L | CHOLESTEROL [1]: 77 mg/dL | CREATINE PHOSPHOKINASE [1]: 464.83 u/L | CREATININE [1]: 0.14 mg/dL | GLUCOSE [1]: 164 mg/dL | LACTATE DEHYDROGENASE [1]: 155.5 u/L | LIPASE [1]: 9.17 u/L | PHOSPHORUS [1]: 12.4 mg/dL | POTASSIUM [1]: 6.91 MEQ/L | SODIUM [1]: 141.47 MEQ/L | TOTAL BILIRUBIN [1]: 0.2 mg/dL | TOTAL PROTEIN [1]: 5.95 G/DL | URIC ACID [1]: 1.72 mg/dL | ABSOLUTE BASOPHIL [2]: 0 CELLS/uL | ABSOLUTE EOSINOPHIL [2]: 20.5 CELLS/uL | ABSOLUTE LYMPHOCYTE [2]: 13871.67 CELLS/uL | ABSOLUTE MONOCYTE [2]: 60.5 CELLS/uL | ABSOLUTE SEGMENTED NEUTROPHIL [2]: 980.67 CELLS/uL | BASOPHIL [2]: 0% | EOSINOPHIL [2]: 0.17% | ERYTHROCYTE COUNT [2]: 5.65 x10E6/uL | HEMATOCRIT [2]: 35.63% | HEMOGLOBIN [2]: 14.08 G/DL | LEUKOCYTE COUNT [2]: 14.93 x10E3/uL | LYMPHOCYTE [2]: 92.83% | MEAN CORPUSCULAR HEMOGLOBIN [2]: 24.97 pg | MEAN CORPUSCULAR HEMOGLOBIN CONCENTRATION [2]: 39.55 G/DL | MEAN CORPUSCULAR VOLUME [2]: 63.13 fL | MONOCYTE [2]: 0.33% | NEUTROPHIL [2]: 6.67% | NUCLEATED RED BLOOD CELLS [2]: 0 /100WBC | PLATELET COUNT [2]: 1248.17 x10E3/uL | ALANINE AMINOTRANSFERASE [2]: 45.17 u/L | ALBUMIN [2]: 4.27 G/DL | ALKALINE PHOSPHATASE [2]: 405.67 u/L | ASPARTATE AMINOTRANSFERASE [2]: 74.17 u/L | BLOOD UREA NITROGEN [2]: 15.5 mg/dL | CARBON DIOXIDE [2]: 30.17 mmol/L | CHLORIDE [2]: 100.67 MEQ/L | CHOLESTEROL [2]: 57 mg/dL | CREATINE PHOSPHOKINASE [2]: 239.5 u/L | CREATININE [2]: 0.17 mg/dL | GLUCOSE [2]: 165.67 mg/dL | LACTATE DEHYDROGENASE [2]: 90.5 u/L | LIPASE [2]: 8.83 u/L | PHOSPHORUS [2]: 12.32 mg/dL | POTASSIUM [2]: 7.03 MEQ/L | SODIUM [2]: 142.65 MEQ/L | TOTAL BILIRUBIN [2]: 0.18 mg/dL | TOTAL PROTEIN [2]: 6.03 G/DL | URIC ACID [2]: 1.98 mg/dL | ABSOLUTE BASOPHIL [3]: 0 CELLS/uL | ABSOLUTE EOSINOPHIL [3]: 0 CELLS/uL | ABSOLUTE LYMPHOCYTE [3]: 13173.33 CELLS/uL | ABSOLUTE MONOCYTE [3]: 95.67 CELLS/uL | ABSOLUTE SEGMENTED NEUTROPHIL [3]: 1364.33 CELLS/uL | BASOPHIL [3]: 0% | EOSINOPHIL [3]: 0% | ERYTHROCYTE COUNT [3]: 5.6 x10E6/uL | HEMATOCRIT [3]: 37.1% | HEMOGLOBIN [3]: 14.57 G/DL | LEUKOCYTE COUNT [3]: 14.63 x10E3/uL | LYMPHOCYTE [3]: 90% | MEAN CORPUSCULAR HEMOGLOBIN [3]: 26.03 pg | MEAN CORPUSCULAR HEMOGLOBIN CONCENTRATION [3]: 39.27 G/DL | MEAN CORPUSCULAR VOLUME [3]: 66.23 fL | MONOCYTE [3]: 0.67% | NEUTROPHIL [3]: 9.33% | NUCLEATED RED BLOOD CELLS [3]: 0.67 /100WBC | PLATELET COUNT [3]: 1171 x10E3/uL | ALANINE AMINOTRANSFERASE [3]: 56.67 u/L | ALBUMIN [3]: 4.2 G/DL | ALKALINE PHOSPHATASE [3]: 324 u/L | ASPARTATE AMINOTRANSFERASE [3]: 86 u/L | BLOOD UREA NITROGEN [3]: 16.33 mg/dL | CARBON DIOXIDE [3]: 26.67 mmol/L | CHLORIDE [3]: 98.67 MEQ/L | CHOLESTEROL [3]: 78 mg/dL | CREATINE PHOSPHOKINASE [3]: 194 u/L | CREATININE [3]: 0.14 mg/dL | GLUCOSE [3]: 149.67 mg/dL | LACTATE DEHYDROGENASE [3]: 120 u/L | LIPASE [3]: 9.33 u/L | PHOSPHORUS [3]: 14.03 mg/dL | POTASSIUM [3]: 6.83 MEQ/L | SODIUM [3]: 143.63 MEQ/L | TOTAL BILIRUBIN [3]: 0.23 mg/dL | TOTAL PROTEIN [3]: 5.9 G/DL | URIC ACID [3]: 1.83 mg/dL

Source: ChEMBL document CHEMBL3885881, “DrugMatrix”
